Experiments:
[1] = test system: purified recombinant human EGFR protein / BTK; assay: BTK inhibition selectivity compared with EGFR kinase inhibitory activity (in vitro); assay type: biochemical; conditions: EGFR assay ATP 1.5 μM
Procedure: 1) Measurement of BTK Inhibitory Activity
2) Measurement of EGFR Inhibitory Activity
Therefore, a biotinated peptide (biotin-[…]) was produced by referring to the amino acid sequence of the peptide. The purified recombinant human EGFR protein used in the test was purchased from Carna Biosciences, Inc.
With regard to the measurement of the inhibitory activity of the compounds, firstly, the compounds of the present invention were diluted stepwise with dimethyl sulfoxide (DMSO). […] The reaction was terminated by adding EDTA thereto in order to obtain a final concentration of 24 mM. Subsequently, a detection liquid containing Eu-labeled anti-phosphorylated tyrosine antibody PT66 (PerkinElmer, Inc.) and […] APC-SA (PerkinElmer, Inc.) was added thereto, and the system was left to stand for 2 hours or longer at room temperature.
3) BTK Inhibition Selectivity

[2] = test system: A431 cells / TMD8 cells; assay: Proliferation inhibitory activity against cell lines expressing BTK and EGFR (in vitro), comparison of selectivity; assay type: cell-based, human; conditions: ratio from GI50 (nM), 3 days culture, CELLTITER GLO
In short: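 BTK-expressing TMD8 DLBCL cells (RPMI1640/10% FBS) and EGFR-overexpressing A431 epidermoid carcinoma cells (DMEM/10% FBS) cultured 1 day, then exposed to compound (0.2% DMSO final) for 3 days at 37° C. Luminescence read-out; inhibition ratio % = (C−T)/(C−C0)×100, with A431/TMD8 ratio as selectivity index.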

[3] = target: purified recombinant human BTK protein (Homo sapiens (Human), UniProt Q06187); assay: Measurement of BTK inhibitory activity (in vitro); assay type: biochemical; conditions: FL-PEPTIDE 2 substrate 1 μM, ATP 45 μM, 40 minutes at 25° C.
In short: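 Recombinant human BTK with FL-PEPTIDE 2 substrate (1 μM), 45 μM ATP and 10 mM MgCl2 in 20 mM HEPES pH 7.5, 2 mM DTT, 0.01% Triton X-100, 5% DMSO; 40 min at 25° C. Reaction stopped with 30 mM EDTA. Phosphorylated and unphosphorylated peptide separated and detected by microchannel capillary electrophoresis.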

Sequence of purified recombinant human BTK protein (Q06187 whole entry): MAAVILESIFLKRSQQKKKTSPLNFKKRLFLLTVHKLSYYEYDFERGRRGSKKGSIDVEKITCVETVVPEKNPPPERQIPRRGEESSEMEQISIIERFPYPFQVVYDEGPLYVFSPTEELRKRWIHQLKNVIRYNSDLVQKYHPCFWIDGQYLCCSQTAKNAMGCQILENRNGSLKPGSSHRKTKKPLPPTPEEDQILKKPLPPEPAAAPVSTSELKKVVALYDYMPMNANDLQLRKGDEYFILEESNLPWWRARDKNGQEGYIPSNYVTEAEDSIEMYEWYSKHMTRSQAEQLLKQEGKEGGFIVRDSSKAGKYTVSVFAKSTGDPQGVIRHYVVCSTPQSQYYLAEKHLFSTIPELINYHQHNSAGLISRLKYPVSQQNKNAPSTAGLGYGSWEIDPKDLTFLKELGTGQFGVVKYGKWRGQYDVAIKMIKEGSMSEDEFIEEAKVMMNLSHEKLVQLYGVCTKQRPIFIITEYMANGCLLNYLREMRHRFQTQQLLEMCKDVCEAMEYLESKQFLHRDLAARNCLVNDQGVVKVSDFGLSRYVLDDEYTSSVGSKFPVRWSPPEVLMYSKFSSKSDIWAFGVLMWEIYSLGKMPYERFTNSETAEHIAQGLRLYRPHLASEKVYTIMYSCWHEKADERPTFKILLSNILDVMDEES

SMILES | EGFR inhibitory activity IC50 value (nM)/BTK inhibitory activity IC50 value (nM) [1] | IC50 [3] | A431 cell proliferation inhibition ratio/TMD8 cell proliferation inhibitio ratio [2]
Nc1ncnc2c1c(C(=O)Nc1nc3cc(Cl)ccc3o1)nn2[C@@H]1CCCN(C(=O)/C=C/CN2CCCC2)C1 [Example 19, (R,E)-4-amino-N-(5-chlorobenzo[d]oxazol-2-yl)-1-(1-(4-(pyrrolidin-1-yl)but-2-enoyl)piperidin-3-yl)-1H-pyrazolo[3,4-d]pyrimidine-3-carboxamide] | 144.8 | 0.69 nM | >17825.3
Nc1ncnc2c1c(C(=O)Nc1nc3cc(Cl)ccc3o1)nn2[C@@H]1CCCN(C(=O)/C=C/CN2CCCCC2)C1 [Example 20, (R,E)-4-amino-N-(5-chlorobenzo[d]oxazol-2-yl)-1-(1-(4-(piperidin-1-yl)but-2-enoyl)piperidin-3-yl)-1H-pyrazolo[3,4-d]pyrimidine-3-carboxamide] | 138.2 | 0.801 nM | >19120.5
C=CC(=O)N1CC[C@@H](n2nc(C(=O)Nc3nc4cc(F)ccc4o3)c3c(N)ncnc32)C1 [Example 30, (R)-1-(1-acryloylpyrrolidin-3-yl)-4-amino-N-(5-fluorobenzo[d]oxazol-2-yl)-1H-pyrazolo[3,4-d]pyrimidine-3-carboxamide] | 21.3 | 0.566 nM | 5164.3
CCN(CC)C/C=C/C(=O)N1CC[C@@H](n2nc(C(=O)Nc3nc4cc(Cl)ccc4o3)c3c(N)ncnc32)C1 [Example 34, (R,E)-4-amino-N-(5-chlorobenzo[d]oxazol-2-yl)-1-(1-(4-(diethylamino)but-2-enoyl)pyrrolidin-3-yl)-1H-pyrazolo[3,4-d]pyrimidine-3-carboxamide] | 79.3 | 0.79 nM | >22471.9
C=CC(=O)N1CC[C@@H](n2nc(C(=O)Nc3nc4cc(C#N)ccc4o3)c3c(N)ncnc32)C1 [Example 39, (R)-1-(1-acryloylpyrrolidin-3-yl)-4-amino-N-(5-cyanobenzo[d]oxazol-2-yl)-1H-pyrazolo[3,4-d]pyrimidine-3-carboxamide] | 37.5 | 1.12 nM | >3510.0
C=CC(=O)N1CC[C@@H](n2nc(C(=O)Nc3nc4cc(CCOC)ccc4o3)c3c(N)ncnc32)C1 [Example 40, (R)-1-(1-acryloylpyrrolidin-3-yl)-4-amino-N-(5-(2-methoxyethyl)benzo[d]oxazol-2-yl)-1H-pyrazolo[3,4-d]pyrimidine-3-carboxamide] | 10.0 | 2.09 nM | >3159.6
CN(C)C/C=C/C(=O)N1CC[C@@H](n2nc(C(=O)Nc3nc4cc(-c5ccccc5)ccc4o3)c3c(N)ncnc32)C1 [Example 42, (R,E)-4-amino-N-(5-phenylbenzo[d]oxazol-2-yl)-1-(1-(4-(dimethylamino)but-2-enoyl)pyrrolidin-3-yl)-1H-pyrazolo[3,4-d]pyrimidine-3-carboxamide] | 19.4 | 0.771 nM | 3934.1
CN(C)C/C=C/C(=O)N1CC[C@@H](n2cc(C(=O)Nc3nc4cc(Cl)ccc4o3)c3c(N)ncnc32)C1 [Example 49, (R,E)-4-amino-N-(5-chlorobenzo[d]oxazol-2-yl)-7-(1-(4-(dimethylamino)but-2-enoyl)pyrrolidin-3-yl) 7H-pyrrolo[2,3-d]pyrimidine-5-carboxamide] | 24.8 | 1.53 nM | >3260.5
CCN(C)C/C=C/C(=O)N1CC[C@@H](n2cc(C(=O)Nc3nc4cc(Cl)ccc4o3)c3c(N)ncnc32)C1 [Example 50, (R,E)-4-amino-N-(5-chlorobenzo[d]oxazol-2-yl)-7-(1-(4-(ethyl(methyl)amino)but-2-enoyl)pyrrolidin-3-yl) 7H-pyrrolo[2,3-d]pyrimidine-5-carboxamide] | 22.1 | 1.41 nM | >2767.8
CC(C)N(C)C/C=C/C(=O)N1CC[C@@H](n2cc(C(=O)Nc3nc4cc(Cl)ccc4o3)c3c(N)ncnc32)C1 [Example 52, (R,E)-4-amino-N-(5-chlorobenzo[d]oxazol-2-yl)-7-(1-(4-(isopropyl(methyl)amino)but-2-enoyl)pyrrolidin-3-yl) 7H-pyrrolo[2,3-d]pyrimidine-5-carboxamide] | 20.6 | 1.2 nM | >3617.9
Nc1ncnc2c1c(C(=O)Nc1nc3cc(Cl)ccc3o1)cn2[C@@H]1CCN(C(=O)/C=C/CN2CCCCC2)C1 [Example 54, (R,E)-4-amino-N-(5-chlorobenzo[d]oxazol-2-yl)-7-(1-(4-(piperidin-1-yl)but-2-enoyl)pyrrolidin-3-yl) 7H-pyrrolo[2,3-d]pyrimidine-5-carboxamide] | 37.1 | 1.44 nM | >2675.9
C=CC(=O)N1CCCC(Cn2nc(C(=O)Nc3nc4ccccc4o3)c3c(N)ncnc32)C1 (stereo not drawn) [Example 67, 1-((1-acryloylpiperidin-3-yl)methyl)-4-amino-N-(benzo[d]oxazol-2-yl)-1H-pyrazolo[3,4-d]pyrimidine-3-carboxamide] | 18.0 | 14 nM | >2168.7

The next lines start with results.

EGFR inhibitory activity IC50 value (nM)/BTK inhibitory activity IC50 value (nM) [1] | IC50 [3] | SMILES | A431 cell proliferation inhibition ratio/TMD8 cell proliferation inhibitio ratio [2]
173.7 | 1.17 nM | C/C=C/C(=O)N1CC[C@@H](n2nc(C(=O)Nc3nc4cc(Cl)ccc4o3)c3c(N)ncnc32)C1 [Example 25, (R,E)-4-amino-N-(5-chlorobenzo[d]oxazol-2-yl)-1-(1-(but-2-enoyl)pyrrolidin-3-yl)-1H-pyrazolo[3,4-d]pyrimidine-3-carboxamide] | 2793.0
43.1 | 0.634 nM | CN(C)C/C=C/C(=O)N1CC[C@@H](n2nc(C(=O)Nc3nc4cc(Cl)ccc4o3)c3c(N)ncnc32)C1 [Example 32, (R,E)-4-amino-N-(5-chlorobenzo[d]oxazol-2-yl)-1-(1-(4-(dimethylamino)but-2-enoyl)pyrrolidin-3-yl)-1H-pyrazolo[3,4-d]pyrimidine-3-carboxamide] | >11123.5
35.1 | 0.792 nM | CC(C)N(C)C/C=C/C(=O)N1CC[C@@H](n2nc(C(=O)Nc3nc4cc(Cl)ccc4o3)c3c(N)ncnc32)C1 [Example 35, (R,E)-4-amino-N-(5-chlorobenzo[d]oxazol-2-yl)-1-(1-(4-(isopropyl(methyl)amino)but-2-enoyl)pyrrolidin-3-yl)-1H-pyrazolo[3,4-d]pyrimidine-3-carboxamide] | >18691.6
17.1 | 0.877 nM | CN(C)C/C=C/C(=O)N1CC[C@@H](n2nc(C(=O)Nc3nc4cc(C(F)(F)F)ccc4o3)c3c(N)ncnc32)C1 [Example 44, (R,E)-4-amino-N-(5-(trifluoromethyl)benzo[d]oxazol-2-yl)-1-(1-(4-(dimethylamino)but-2-enoyl)pyrrolidin-3-yl)-1H-pyrazolo[3,4-d]pyrimidine-3-carboxamide] | 10905.1
31.1 | 1.48 nM | CCN(CC)C/C=C/C(=O)N1CC[C@@H](n2cc(C(=O)Nc3nc4cc(Cl)ccc4o3)c3c(N)ncnc32)C1 [Example 51, (R,E)-4-amino-N-(5-chlorobenzo[d]oxazol-2-yl)-7-(1-(4-(diethylamino)but-2-enoyl)pyrrolidin-3-yl) 7H-pyrrolo[2,3-d]pyrimidine-5-carboxamide] | >2044.6
25.5 | 1.68 nM | Nc1ncnc2c1c(C(=O)Nc1nc3cc(Cl)ccc3o1)cn2[C@@H]1CCN(C(=O)/C=C/CN2CCCC2)C1 [Example 53, (R,E)-4-amino-N-(5-chlorobenzo[d]oxazol-2-yl)-7-(1-(4-(pyrrolidin-1-yl)but-2-enoyl)pyrrolidin-3-yl) 7H-pyrrolo[2,3-d]pyrimidine-5-carboxamide] | >1535.4

From patent publication US9580432B2, “Fused pyrimidine compound or salt thereof” (TAIHO PHARMACEUTICAL CO., LTD., priority 2013, dated 2017)
